Values quoted from earlier work in US10174388B2, “Method for selection of agents influencing intestinal motility disorders and pain” (BioGaia AB, priority 2012, dated 2019).
Where two headings read alike, the source gives them in different places.

Conditions: baseline 197 minutes in both groups

Substance: simethicone
- median daily crying time (day 7): 177 min
- median daily crying time (day 28): 145 min
